Where two headings read alike, the source gives them in different places.
Columns and labels:
[1] = test system: A549; assay: MTT cytotoxicity assay, A549; type: cell-based, human; conditions: 72 h, Table 7, read-out: GI50 ± SC (μM) A-49
Procedure: (§1) Cytotoxicity Assays. […] The cells were incubated with the tested compounds for 72 hours in a five-dose assay ranging from 0.01 to 100 μM concentration. After drug treatments, MTT solution was added to test the percentage growth of tumor cells.
(§2) The compounds were incubated with the cells for 72 hours in a five-dose assay ranging from 0.01 to 100 μM concentration. At the end of the incubation, the MTT solution was added to test the percentage growth of tumor cells.
(§3) For the drug treatment experiments, the cancer cells were treated with the compounds (predissolved in DMSO) at a five-dose assay ranging from 0.01 to 100 μM concentration. […] After 4 h incubation, the formazan crystal formed in the well was dissolved with […] of DMSO for optical density reading at 570 nm. The GI50 value was calculated by nonlinear regression analysis (GraphPad Prism).

[2] = test system: DU145; assay: MTT cytotoxicity assay, DU145; type: cell-based, human
Procedure: as §1, §2, §3

[3] = test system: IGROV1; assay: NCI-60 cytotoxicity; type: cell-based, human; conditions: NCI-60 Ovarian Cancer, 48 h
Procedure: (§4) Cell growth inhibition (GI50 in Table 3) was calculated relative to cells without compound treatment and the time zero control.
(§5) Regarding Table 8, according to the NCI established procedures, the cells were incubated with 67 or 50 for 48 hours and stained with sulforhodamine B dye.

[4] = test system: MDA-MB-468; assay: NCI-60 cytotoxicity; type: cell-based, human; conditions: NCI-60 Breast Cancer, 48 h
Procedure: as §4, §5

[5] = test system: SNB-19; assay: NCI-60 cytotoxicity; type: cell-based, human; conditions: NCI-60 CNS Cancer, 48 h
Procedure: as §4, §5

[6] = test system: NCI-H23; assay: NCI-60 cytotoxicity; type: cell-based, human; conditions: NCI-60 Non-Small Cell Lung Cancer, 48 h
Procedure: as §4, §5

[7] = test system: MOLT-4; assay: NCI-60 cytotoxicity; type: cell-based, human; conditions: NCI-60 Leukemia, 48 h
Procedure: as §4, §5

[8] = test system: PC-3; assay: NCI-60 cytotoxicity; type: cell-based, human; conditions: NCI-60 Prostate Cancer, 48 h
Procedure: as §4, §5

[9] = test system: SN 12C; assay: NCI-60 cytotoxicity; type: cell-based, human; conditions: NCI-60 Renal Cancer, 48 h
Procedure: as §4, §5

[10] = test system: UACC-257; assay: NCI-60 cytotoxicity; type: cell-based, human; conditions: NCI-60 Melanoma, 48 h
Procedure: as §4, §5

[11] = test system: SK-MEL-2; assay: NCI-60 cytotoxicity; type: cell-based, human; conditions: NCI-60 Melanoma, 48 h
Procedure: as §4, §5

[12] = test system: RPMI-8226; assay: NCI-60 cytotoxicity; type: cell-based, human; conditions: NCI-60 Leukemia, 48 h
Procedure: as §4, §5

[13] = test system: HCC-2998; assay: NCI-60 cytotoxicity; type: cell-based, human; conditions: NCI-60 Colon Cancer, 48 h
Procedure: as §4, §5

[14] = test system: SF-268; assay: NCI-60 cytotoxicity; type: cell-based, human; conditions: NCI-60 CNS Cancer, 48 h
Procedure: as §4, §5

[15] = test system: CAKI-1; assay: NCI-60 cytotoxicity; type: cell-based, human; conditions: NCI-60 Renal Cancer, 48 h
Procedure: as §4, §5

[16] = test system: COLO 205; assay: NCI-60 cytotoxicity; type: cell-based, human; conditions: NCI-60 Colon Cancer, 48 h
Procedure: as §4, §5

[17] = test system: NCI-H226; assay: NCI-60 cytotoxicity; type: cell-based, human; conditions: NCI-60 Non-Small Cell Lung Cancer, 48 h
Procedure: as §4, §5

[18] = test system: HOP-62; assay: NCI-60 cytotoxicity; type: cell-based, human; conditions: NCI-60 Non-Small Cell Lung Cancer, 48 h
Procedure: as §4, §5

[19] = test system: NCI-H322M; assay: NCI-60 cytotoxicity; type: cell-based, human; conditions: NCI-60 Non-Small Cell Lung Cancer, 48 h
Procedure: as §4, §5

[20] = test system: EKVX; assay: NCI-60 cytotoxicity; type: cell-based, human; conditions: NCI-60 Non-Small Cell Lung Cancer, 48 h
Procedure: as §4, §5

[21] = test system: HT29; assay: NCI-60 cytotoxicity; type: cell-based, human; conditions: NCI-60 Colon Cancer, 48 h
Procedure: as §4, §5

[22] = test system: RXF 393; assay: NCI-60 cytotoxicity; type: cell-based, human; conditions: NCI-60 Renal Cancer, 48 h
Procedure: as §4, §5

[23] = test system: U251; assay: NCI-60 cytotoxicity; type: cell-based, human; conditions: NCI-60 CNS Cancer, 48 h
Procedure: as §4, §5

[24] = test system: A498; assay: NCI-60 cytotoxicity; type: cell-based, human; conditions: NCI-60 Renal Cancer, 48 h
Procedure: as §4, §5

[25] = test system: ACHN; assay: NCI-60 cytotoxicity; type: cell-based, human; conditions: NCI-60 Renal Cancer, 48 h
Procedure: as §4, §5

[26] = test system: SF-539; assay: NCI-60 cytotoxicity; type: cell-based, human; conditions: NCI-60 CNS Cancer, 48 h
Procedure: as §4, §5

[27] = test system: HS 578T; assay: NCI-60 cytotoxicity; type: cell-based, human; conditions: NCI-60 Breast Cancer, 48 h
Procedure: as §4, §5

[28] = test system: HOP-92; assay: NCI-60 cytotoxicity; type: cell-based, human; conditions: NCI-60 Non-Small Cell Lung Cancer, 48 h
Procedure: as §4, §5

[29] = test system: OVCAR-5; assay: NCI-60 cytotoxicity; type: cell-based, human; conditions: NCI-60 Ovarian Cancer, 48 h
Procedure: as §4, §5

[30] = test system: MDA-MB-231/ATCC; assay: NCI-60 cytotoxicity; type: cell-based, human; conditions: NCI-60 Breast Cancer, 48 h
Procedure: as §4, §5

[31] = test system: K-562; assay: NCI-60 cytotoxicity; type: cell-based, human; conditions: NCI-60 Leukemia, 48 h
Procedure: as §4, §5

[32] = test system: TK-10; assay: NCI-60 cytotoxicity; type: cell-based, human; conditions: NCI-60 Renal Cancer, 48 h
Procedure: as §4, §5

[33] = test system: UO-31; assay: NCI-60 cytotoxicity; type: cell-based, human; conditions: NCI-60 Renal Cancer, 48 h
Procedure: as §4, §5

[34] = test system: HCT116; assay: NCI-60 cytotoxicity; type: cell-based, human; conditions: NCI-60 Colon Cancer, 48 h
Procedure: as §4, §5

[35] = test system: KM12; assay: NCI-60 cytotoxicity; type: cell-based, human; conditions: NCI-60 Colon Cancer, 48 h
Procedure: as §4, §5

[36] = test system: HCT-15; assay: NCI-60 cytotoxicity; type: cell-based, human; conditions: NCI-60 Colon Cancer, 48 h
Procedure: as §4, §5

[37] = test system: OVCAR-4; assay: NCI-60 cytotoxicity; type: cell-based, human; conditions: NCI-60 Ovarian Cancer, 48 h
Procedure: as §4, §5

[38] = test system: DU-145; assay: NCI-60 cytotoxicity; type: cell-based, human; conditions: read-out: GI50 (μM) DU-145; NCI-60 Prostate Cancer, 48 h
Procedure: as §4, §5

[39] = test system: HCT116 xenograft; assay: In vivo antitumor activity, HCT116 xenograft
[40] = 72 h, Table 7, read-out: GI50 ± SC (μM) DU145

## COc1cc2c(=O)n(CCN)c3c4cc5c(cc4ccc3c2cc1OC)OCO5 [Compound 67, 12-(2-aminoethyl)-2,3-dimethoxy-[1,3]dioxolo[4′,5′:4,5]benzo[1,2-c]phenanthridin-13(12-H)-one]
[1]
  GI50: 0.98 ± 0.014 µM
[2]; [40]
  GI50: 0.014 ± 0.001 µM
[3]
  GI50: 0.5 µM
[4]
  GI50: 0.157 µM
[5]
  GI50: 0.398 µM
[6]
  GI50: 0.451 µM
[7]
  GI50: 0.0633 µM
[8]
  GI50: 0.532 µM
[9]
  GI50: 0.739 µM
[10]
  GI50: 1.9 µM
[11]
  GI50: 3.01 µM
[12]
  GI50: 0.257 µM
[13]
  GI50: 1.02 µM
[14]
  GI50: 0.442 µM
[15]
  GI50: 0.295 µM
[16]
  GI50: 0.29 µM
[17]
  GI50: 1.34 µM
[18]
  GI50: 0.399 µM
[19]
  GI50: 0.99 µM
[20]
  GI50: 1.36 µM
[21]
  GI50: 0.168 µM
[22]
  GI50: 0.929 µM
[23]
  GI50: 0.26 µM
[24]
  GI50: 1.23 µM
[25]
  GI50: 0.366 µM
[26]
  GI50: 1.06 µM
[27]
  GI50: 1.96 µM
[28]
  GI50: 3.56 µM
[29]
  GI50: 1.2 µM
[30]
  GI50: 1.28 µM
[31]
  GI50: 0.161 µM
[32]
  GI50: 1.35 µM
[33]
  GI50: 0.35 µM
[34]
  GI50: 0.285 µM
[35]
  GI50: 1.1 µM
[36]
  GI50: 0.42 µM
[37]
  GI50: 0.782 µM
[38]
  GI50: 0.527 µM

## CNCCn1c(=O)c2cc(OC)c(OC)cc2c2ccc3cc4c(cc3c21)OCO4 [Compound 50, 2,3-dimethoxy-12-(2-(methylamino)ethyl)-[1,3]dioxolo[4′5′:4,5]benzo[1,2-c]phenanthridin-13(12H)-one]
[1]
  GI50: 0.97 µM
[39]; HCT116 model, 20 μM dose (so in the source), ip daily
  tumor weight inhibitions (TWI): 76.9%
[39]; HCT116 xenograft, i.p. once every day
  tumor volume: significantly reduced the tumor volume in a dose-dependent manner
[2]; [40]
  GI50: 0.002 µM
[2]; read-out: GI50 ± SD (μM) Parental cell line DU-145, drug-resistance panel
  GI50: 0.002 ± 0.001 µM
[3]
  GI50: 0.145 µM
[4]
  GI50: 0.0599 µM
[5]
  GI50: 0.116 µM
[6]
  GI50: 0.0906 µM
[7]
  GI50: 0.0234 µM
[8]
  GI50: 0.112 µM
[9]
  GI50: 0.171 µM
[10]
  GI50: 0.122 µM
[11]
  GI50: 0.393 µM
[12]
  GI50: 0.0763 µM
[13]
  GI50: 0.156 µM
[14]
  GI50: 0.0903 µM
[15]
  GI50: 0.0644 µM
[16]
  GI50: 0.0605 µM
[17]
  GI50: 0.172 µM
[18]
  GI50: 0.0439 µM
[19]
  GI50: 0.147 µM
[20]
  GI50: 0.202 µM
[21]
  GI50: 0.0508 µM
[22]
  GI50: 0.16 µM
[23]
  GI50: 0.0394 µM
[24]
  GI50: 0.127 µM
[25]
  GI50: 0.0856 µM
[26]
  GI50: 0.124 µM
[27]
  GI50: 0.904 µM
[28]
  GI50: 0.184 µM
[29]
  GI50: 0.183 µM
[30]
  GI50: 0.362 µM
[31]
  GI50: 0.0394 µM
[32]
  GI50: 0.316 µM
[33]
  GI50: 0.104 µM
[34]
  GI50: 0.0515 µM
[35]
  GI50: 0.238 µM
[36]
  GI50: 0.116 µM
[37]
  GI50: 0.154 µM
[38]
  GI50: 0.13 µM
